ChEMBL document CHEMBL5620358, “Proteolysis-targeting chimeras in biotherapeutics: Current trends and future applications” (Eur J Med Chem, 2023)
pIC50: −log10 of the molar value.

Legend:
[1] = Induction of AR degradation in castrated mouse model xenografted with human VCaP cells at 1 mg/kg; format: functional
[2] = molecular target: T1, Protein cereblon/Cyclin-dependent kinase 9 (Homo sapiens) (UniProt P50750+Q96SW2); assay: PROTAC activity at E3 ubiquitin ligase/CDK9 in human MOLT-4 cells assessed as induction of CDK9 degradation at 250 nM by immunoblot analysis; format: cell-based
[3] = molecular target: von Hippel-Lindau disease tumor suppressor/Haloalkane dehalogenase (Rhodococcus sp) (UniProt P40337+P0A3G3); assay: PROTAC activity at VHL/HaloTag7-GFP fusion protein (unknown origin) assessed as induction of fusion protein degradation relative to control
[4] = molecular target: von Hippel-Lindau disease tumor suppressor/Haloalkane dehalogenase (Rhodococcus sp, UniProt P40337+P0A3G3); assay: PROTAC activity at VHL/HaloTag7-GFP fusion protein (unknown origin) assessed as induction of fusion protein degradation
[5] = molecular target: T1, Protein cereblon/Cyclin-dependent kinase 9 (Homo sapiens); assay: PROTAC activity at E3 ubiquitin ligase/CDK9 in human HCT-116 cells assessed as induction of CDK9 degradation at 20 uM measured after 6 hrs by western blot analysis; format: cell-based
[6] = Antiproliferative activity against human TNBC cells assessed as inhibition of cell growth; format: functional, Breast carcinoma cell
[7] = molecular target: Protein cereblon/Macrophage migration inhibitory factor (Homo sapiens, UniProt P14174+Q96SW2); assay: PROTAC activity at E3 ubiquitin ligase/MIF in human A549 cells assessed as induction of MIF degradation; format: cell-based
[8] = molecular target: Protein cereblon/Bromodomain-containing protein 9 (Homo sapiens, UniProt Q9H8M2+Q96SW2); assay: PROTAC activity at CRBN/BRD9 (unknown origin) assessed as induction of BRD9 degradation; format: protein assay
[9] = test system: MCF7; assay: Cytotoxicity against human MCF7 cells assessed as inhibition of cell proliferation measured after 72 hrs by MTT assay; format: functional, cell-based; conditions: MCF7, 72 h

With `N#Cc1ccc(O[C@H]2CC[C@H](NC(=O)c3ccc(N4CCC(CN5CCN(c6cc7c(cc6F)C(=O)N(C6CCC(=O)NC6=O)C7=O)CC5)CC4)nn3)CC2)cc1Cl` (some centres undefined) [BAVDEGALUTAMIDE] the Activity [1] was 90%.

In the case of `CC(C)(C)c1cnc(CSc2cnc(NC(=O)C3CCN(CC(=O)NCCOCCOCCOCCNc4cccc5c4C(=O)N(C4CCC(=O)NC4=O)C5=O)CC3)s2)o1` (centres undefined), the Activity [2] was 99%.

Work on `Cc1ncsc1-c1ccc(CNC(=O)[C@@H]2C[C@@H](O)CN2C(=O)[C@H](C(C)C)N2Cc3ccccc3C2=O)c(OCCOCCOCCOCCCCCCCl)c1` yielded an Activity [3] of 90% and a DC50 [4] of 19 nM.

`O=C1CCC(N2C(=O)c3cccc(OCCCCCOc4ccc(CC(=O)Nc5cc(C6CCC6)[nH]n5)cc4)c3C2=O)C(=O)N1` (centres undefined) showed an Activity [5] of 65%.

With `Nc1c(C(=O)Nc2ccc(F)cc2)sc2nc(-c3cccs3)cc(C(F)(F)F)c12` the “inhibition (INH)” value [6] was 47.8%.

`O=C1CCC(N2C(=O)c3cccc(NCCCCCCCC(=O)Nc4ccc(N5Cc6ccc(O)cc6OC5=O)cc4)c3C2=O)C(=O)N1` (centres undefined) showed a DC50 [7] of 100 nM.

In the case of `COc1cc(-c2cn(C)c(=O)c(C)c2C)cc(OC)c1CN1CC[C@H](N2CCN(c3ccc(N[C@H]4CCC(=O)NC4=O)cc3F)CC2)C(F)(F)C1` [SENDEGOBRESIB], the DC50 [8] was 2.7 nM.

Molecule `Nc1cccc2c1C(=O)N(C1CCC(=O)NC1=O)C2=O` (centres undefined) [POMALIDOMIDE] has a pIC50 [9] of 4.77.
